From PMC10934024, “Protein–Ligand Binding and Structural Modelling Studies of Pheromone-Binding Protein-like Sol g 2.1 from Solenopsis geminata Fire Ant Venom” (Molecules, 2024)

What was measured:
rSol g 2.1 protein [1] = molecular target: T1, rSol g 2.1 protein (Solenopsis geminata, UniProt A0A9E7V488); experiment: Fluorescence binding assay, NPN titration into rSol g 2.1
T1 sequence (A0A9E7V488 1-119): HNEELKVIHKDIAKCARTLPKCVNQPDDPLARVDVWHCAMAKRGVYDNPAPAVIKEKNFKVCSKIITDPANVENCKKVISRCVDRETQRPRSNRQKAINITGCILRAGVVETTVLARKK
Method: The fluorescence binding assay of rSol g 2.1 protein was conducted using the fluorescent probe N-phenyl-1-naphtylamine (NPN). […] The fluorescence intensity was measured on a PTI QuantaMaster fluorometer (Horiba Ltd., Kyoto, Japan) with a 337 nm excitation wavelength and emission scan ranging from 300–500 nm at room temperature in triplicate. To obtain the equilibrium dissociation (Kd) value, the fluorescence intensity at the maximal emission wavelength 400 nm was plotted for each NPN concentration. Data were fitted to a specific allosteric binding model using GraphPad Prism Version 9.0 (GraphPad Software, San Diego, CA, USA). Y = Bmax × X^h/(Kd^h + X^h) was used as an equation in the fitting model, where Bmax is the maximal specific binding in the same unit as Y, X is the NPN concentration (µM), and Y is the fluorescence intensity counts/second. Moreover, h is the Hill slope, which is 1.0 for cases with one site. If there is more than one binding site per protein and there is cooperativity, then h > 1.0, and the graph takes on a sigmoidal appearance.

rSol g 2.1 protein [2] = molecular target: T1, rSol g 2.1 protein; experiment: Fluorescence competitive binding assay (NPN displacement); settings: 2 µM rSol g 2.1 with 4 µM NPN, ligand 0-4 µM, 50 mM Tris-HCl pH 7.4
Method: The binding of the endogenous ligands, including decane, undecane dodecane, and tridecane, to rSol g 2.1 protein was measured by a competitive binding assay. In this procedure, 1 mL of rSol g 2.1 protein (2 µM) in 50 mM Tris-HCl (pH 7.4) containing NPN (4 µM) was titrated with each ligand (1 mM in methanol stock) to the final concentrations of 0, 0.125, 0.375, 0.625, 0.875, 1.125, 2, 3, and 4 µM. Additionally, the same concentrations of the blended ligands, which consisted of decane (45%), undecane (36%), dodecane (15%), and tridecane (4%), were used to investigate the blend effect of Sol g 2.1 protein. The resulting isotherms were fitted (GraphPad Prism 9) to both a one-site model and an allosteric model.

Sol i 2 = settings: cited from earlier work

c1ccc(Nc2cccc3ccccc23)cc1 [NPN, N-phenyl-1-naphtylamine]
Kd (rSol g 2.1 protein [1]; 2 µM rSol g 2.1, 50 mM Tris-HCl pH 7.4, NPN 0-12 µM, emission 400 nm, specific binding with Hill slope model): 1.9 ± 0.08 µM | h slope (Hill slope) (rSol g 2.1 protein [1]; same fit as Kd of NPN): 1.64 ± 0.12

CCCCCCCCCCCC [dodecane, Dodecane]
Kd (rSol g 2.1 protein [2]): 0.39 µM

CCCCCCCCCCC [undecane, Undecane]
Kd (rSol g 2.1 protein [2]): 0.33 µM | binding affinity (Sol i 2): high binding affinity

CCCCCCCCCC [decane, Decane]
Kd (rSol g 2.1 protein [2]): 0.32 µM | binding affinity (Sol i 2): high binding affinity

CCCCCCCCCCCCC [tridecane, Tridecane]
Kd (rSol g 2.1 protein [2]): 0.38 µM

C=CC(=C)CC/C=C(\C)CCC=C(C)C [(E)-β-farnesene]
binding affinity (Sol i 2): high binding affinity
